Patent US20240190862A1 (AMGEN INC., priority 2019, published 2024)
Like-named read-outs stand apart in the source and are kept apart here.

Legend:
[1] = biological target: GDP-bound KRAS protein (aa 1-169) G12C/C118A (Homo sapiens (Human), UniProt P01116, C118A/G12C); experiment: Coupled Nucleotide Exchange Assay (KRAS G12C); assay type: biochemical
Protocol: (§1) Coupled Nucleotide Exchange Assay: Purified GDP-bound KRAS protein (aa 1-169), containing either G12C or G12D, as well as C118A amino acid substitutions and an N-terminal His-tag, was pre-incubated in assay buffer (25 mM HEPES pH 7.4, 10 mM MgCl2, and 0.01% Triton X-100) with a compound dose-response titration for either 5 min or 20 hours (see Table 15). Following compound pre-incubation, purified SOS protein (aa 564-1049) and GTP (Roche 10106399001) were added to the assay wells and incubated for an additional 30 min. To determine the extent of inhibition of SOS-mediated nucleotide exchange, purified GST-tagged cRAF (aa 1-149), nickel chelate AlphaLISA acceptor beads (PerkinElmer AL108R), and AlphaScreen glutathione donor beads (PerkinElmer 6765302) were added to the assay wells and incubated for 10 minutes. The assay plates were then read on a PerkinElmer EnVision Multilabel Reader, using AlphaScreen® technology, and data were analyzed using a 4-parameter logistic model to calculate IC50 values.

[2] = biological target: GDP-KRAS G12D (Homo sapiens, UniProt P01116, C118A/G12D); experiment: GDP-KRAS G12D RF-MS Assay; assay type: binding; conditions: 100 μM inhibitor, 20 h incubation, 2 uM KRAS G12D
Protocol: GDP-KRAS G12D RF-MS Assay: MS assays were performed in the following buffer: 25 mM HEPES pH 7.4, 20 mM MgCl2, 10 mM NaCl, 3% DMSO, 0.0005% CHAPS with 100 μM GDP made fresh and added to the assay buffer. The final concentration of KRAS G12D was 2 uM. Assay incubation times were 20 h and the inhibitor concentration was 100 μM. Greiner polypropylene clear V-bottom plates were used for the mass spectrometry assays. Typically, the reaction was initiated by addition of KRAS G12D to a well containing inhibitor followed by Rapidfire MS analysis. Relative % Bound values at the various incubation times were used to estimate a kobs value at 100 uM inhibitor.
RapidFire Sample Liquid handling System: The RapidFire liquid handling unit used was the RF 360 model. Solvents were delivered by Agilent 1260 Infinity pumps. The instrument control software was the Agilent RapidFire High Throughput MS-system software (v4.0.12333.14274). A single C4 Type A (Agilent technologies, G9203) SPE-cartridge was used for these experiments. A volume of 10 μL (sample loop determined) was removed from each well of a 384-well plate by using an aspiration time of 300 ms. The sample load/wash time was 6000 ms at a flow rate of 1.25 mL/min (H2O, 0.1% v/v formic acid, 0.05% v/v trifluoroacetic acid); elution time was 7000 ms (acetonitrile, 0.1% v/v formic acid, 0.05% v/v trifluoroacetic acid); re-equilibration time was 700 ms at a flow rate of 1.25 mL/min (H2O, 0.1% v/v formic acid, 0.05% v/v trifluoroacetic acid).
Mass Spectrometry: Mass spectrometric data was acquired on an Agilent 6530 quadrupole time-of-flight (ToF) MS system, operated with a dual Agilent Jet Spray (AJS) ion source, in positive ionization mode. The instrument parameters were as follows: gas temperature 350° C.; drying gas 5 L/min; nebulizer 60 psi; sheath gas 350° C.; sheath gas flow 11 L/min; capillary 3.5 kV (0.037 μA); nozzle 1.75 kV; fragmentor 200 V; skimmer 75 V; octapole RF 800 V peak-to-peak. Data was acquired at the rate of 5 spectra/s. The mass scale was calibrated using the Agilent positive ion tune mix, over the m/z range 300-3200. The instrument control software was Agilent MassHunter Workstation Data Acquisition (vB.05.01).
Mass Spectrometry Data Processing and Informatics: All data processing was performed using a HP Z620, 64-bit, 12-processor, Windows 7 PC, using a combination of Agilent MassHunter Qualitative Analysis (B.05.00) Agilent RapidFire control software (v4.0.12333.14070) and the Agilent DA Reprocessor Offline Utilities B.05.00, Build 162. The SPE-MS data acquired from the RapidFire-MS system is typically a single SPE-MS data file composed of multiple injection events. For effective charge state extraction, SPE-peak integration and subsequent MS-spectral deconvolution, the single SPE-MS data file is split into single injection events. This is typically performed off-line and achieved through the RapidFire User Interface software, using the Agilent RapidFire control software (v4.0.12333.14070) using the Convert MS Data option. Once the individual injection-event MS-data files have been produced, they are all batch processed using the DA Reprocessor Offline Utilities (B.05.00, Build 162, Agilent). For batch processing a method file was created using Agilent MassHunter Qualitative Analysis B.05.00. The details of this method file are contained within the BioConfirm Workflow and are as follows: Integrate (MS), Integrator Selection: General, smooth option selected; detector point sampling 1; start threshold 5.0; stop threshold 0.0; filtering 5 point; peak location, top. Extract (MS): Peak Spectrum Extraction (MS) within m/z 800-1400. Deconvolute (MS) Maximum Entropy: mass range 19,000-21,000 Daltons; Mass step 1.0 Da; S/N threshold 20.0; Use limited m/z range 800-1400; adduct proton; isotope peak width automatic; minimum consecutive charge states 5. […]

[3] = biological target: GDP-bound KRAS protein (aa 1-169) G12D/C118A (Homo sapiens (Human), UniProt P01116, C118A/G12D); experiment: Coupled Nucleotide Exchange Assay (KRAS G12D); assay type: biochemical; conditions: 20 h compound pre-incubation; read-out: GDP KRAS G12D 20 h Coupled Exchange IC50 IP
GDP-bound KRAS protein (aa 1-169) G12D/C118A, sequence (P01116 other isoform, or with tags, fused parts or gaps G12D/C118A): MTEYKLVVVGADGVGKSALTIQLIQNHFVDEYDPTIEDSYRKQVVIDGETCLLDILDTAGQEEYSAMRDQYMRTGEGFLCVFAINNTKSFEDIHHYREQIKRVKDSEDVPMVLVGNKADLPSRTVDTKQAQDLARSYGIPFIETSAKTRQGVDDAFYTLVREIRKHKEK
Protocol: as §1

[4] = 5 min compound pre-incubation, read-out: GDP KRAS G12C 5 min Coupled Exchange IC50 IP
[5] = 20 h compound pre-incubation, read-out: GDP KRAS G12C 20 h Coupled Exchange IC50 IP

GDP-bound KRAS protein (aa 1-169) G12C/C118A, sequence (P01116 other isoform, or with tags, fused parts or gaps G12C/C118A): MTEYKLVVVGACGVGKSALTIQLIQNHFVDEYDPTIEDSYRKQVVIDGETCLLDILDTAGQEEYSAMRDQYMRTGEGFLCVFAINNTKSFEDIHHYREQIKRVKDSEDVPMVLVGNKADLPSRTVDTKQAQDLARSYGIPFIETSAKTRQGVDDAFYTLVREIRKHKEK

SMILES | IC50 [1, 4] [µM] | IC50 [1, 5] [µM] | GDP-KRAS G12D RF-MS 100 μM 20 h Relative % Bound [2] [%] | IC50 [3] [µM]
Cc1ccnc(C(C)C)c1-n1c(=O)nc(N[C@@H]2CCN(C(=O)C3CO3)C2)c2cc(Cl)c(-c3ccccc3F)nc21 (stereo partly drawn) [Example 32, 6-Chloro-7-(2-fluorophenyl)-1-(2-isopropyl-4-methylpyridin-3-yl)-4-(((3R)-1-(oxirane-2-carbonyl)pyrrolidin-3-yl)amino)pyrido[2,3-d]pyrimidin-2(1H)-one] | 101 | 1.85 | 3.1 | > 250
Cc1ccnc(C(C)C)c1-n1c(=O)nc(N2C[C@@H](C)N(C(=O)[C@H]3CO3)C[C@@H]2C)c2cc(Cl)c(-c3c(N)cccc3F)nc21 [Example 37, 7-(2-Amino-6-fluorophenyl)-6-chloro-4-((2S,5R)-2,5-dimethyl-4-((R)-oxirane-2-carbonyl)piperazin-1-yl)-1-(2-isopropyl-4-methylpyridin-3-yl)pyrido[2,3-d]pyrimidin-2(1H)-one] | 0.56 | 0.015 | 15.8 | > 250
Cc1ccnc(C(C)C)c1-n1c(=O)nc(N2C[C@@H](C)N(C(=O)[C@H]3CO3)C[C@@H]2C)c2cc(Cl)c(-c3c(O)cccc3F)nc21 [Example 36, 6-Chloro-4-((2S,5R)-2,5-dimethyl-4-((R)-oxirane-2-carbonyl)piperazin-1-yl)-7-(2-fluoro-6-hydroxyphenyl)-1-(2-isopropyl-4-methylpyridin-3-yl)pyrido[2,3-d]pyrimidin-2(1H)-one] | 0.653 | 0.024 | 8.1 | > 250
Cc1ccnc(C(C)C)c1-n1c(=O)nc(N2CCC[C@H](NC(=O)C3CO3)C2)c2cc(Cl)c(-c3ccccc3F)nc21 (stereo partly drawn) [Example 34, N—((S)-1-(6-Chloro-7-(2-fluorophenyl)-1-(2-isopropyl-4-methylpyridin-3-yl)-2-oxo-1,2-dihydropyrido[2,3-d]pyrimidin-4-yl)piperidin-3-yl)oxirane-2-carboxamide] | > 250 | > 250 | 2.9 | > 250
Cc1ccnc(C(C)C)c1-n1c(=O)nc(N2CCCC3C2CN3C(=O)C2CO2)c2cc(Cl)c(-c3ccccc3F)nc21 (stereo not drawn) [Example 33, 6-Chloro-7-(2-fluorophenyl)-1-(2-isopropyl-4-methylpyridin-3-yl)-4-(7-(oxirane-2-carbonyl)-2,7-diazabicyclo[4.2.0]octan-2-yl)pyrido[2,3-d]pyrimidin-2(1H)-one] | 60.9 | 0.261 | 2 | > 250
Cc1ccnc(C(C)C)c1-n1c(=O)nc(N(C)C2CN(C(=O)[C@H]3CO3)C2)c2cc(Cl)c(-c3ccccc3F)nc21 [Example 30, (R)-6-chloro-7-(2-fluorophenyl)-1-(2-isopropyl-4-methylpyridin-3-yl)-4-(methyl(1-(oxirane-2-carbonyl)azetidin-3-yl)amino)pyrido[2,3-d]pyrimidin-2(1H)-one] | > 250 | > 31.3 | 1.4 | > 250
Cc1ccnc(C(C)C)c1-n1c(=O)nc(N2CC[C@H](NC(=O)C3CO3)C2)c2cc(Cl)c(-c3ccccc3F)nc21 (stereo partly drawn) [Example 35, N—((S)-1-(6-chloro-7-(2-fluorophenyl)-1-(2-isopropyl-4-methylpyridin-3-yl)-2-oxo-1,2-dihydropyrido[2,3-d]pyrimidin-4-yl)pyrrolidin-3-yl)oxirane-2-carboxamide] | 167 | 1.36 | 3.4 | > 250
Cc1ccnc(C(C)C)c1-n1c(=O)nc(NC2CN(C(=O)C3CO3)C2)c2cc(Cl)c(-c3ccccc3F)nc21 (stereo not drawn) [Example 31, 6-Chloro-7-(2-fluorophenyl)-1-(2-isopropyl-4-methylpyridin-3-yl)-4-((1-(oxirane-2-carbonyl)azetidin-3-yl)amino)pyrido[2,3-d]pyrimidin-2(1H)-one] | 146 | 1.57 | 2.2 | > 250
Cc1ccnc(C(C)C)c1-n1c(=O)nc(N2CCN(C(=O)[C@H]3CO3)C[C@@H]2C)c2cc(Cl)c(-c3ccccc3F)nc21 (atropisomer, axis not shown) [Example 16, 6-Chloro-7-(2-fluorophenyl)-1-(2-isopropyl-4-methylpyridin-3-yl)-4-((S)-2-methyl-4-((R)-oxirane-2-carbonyl)piperazin-1-yl)pyrido[2,3-d]pyrimidin-2(1H)-one] | 3.78 | 0.027 | 3.4 | 190
Cc1ccnc(C(C)C)c1-n1c(=O)nc(N2CC3(CN(C(=O)C4CO4)C3)C2)c2cc(Cl)c(-c3ccccc3F)nc21 (stereo not drawn) [Example 24, 6-Chloro-7-(2-fluorophenyl)-1-(2-isopropyl-4-methylpyridin-3-yl)-4-(6-(oxirane-2-carbonyl)-2,6-diazaspiro[3.3]heptan-2-yl)pyrido[2,3-d]pyrimidin-2(1H)-one] | 222 | 41.6 | – | > 250
CCOC(=O)[C@H]1O[C@@H]1C(=O)N1CCN(c2nc(=O)n(-c3c(C)ccnc3C(C)C)c3nc(-c4ccccc4F)c(Cl)cc23)[C@@H](C)C1 [Example 18, Ethyl (2S,3S)-3-((S)-4-(6-chloro-7-(2-fluorophenyl)-1-(2-isopropyl-4-methylpyridin-3-yl)-2-oxo-1,2-dihydropyrido[2,3-d]pyrimidin-4-yl)-3-methylpiperazine-1-carbonyl)oxirane-2-carboxylate] | 23.9 | 0.53 | – | > 250
